Assay results published in patent publication US12492367B2, “Sensor chip capable of culturing cells and of analyzing cell-derived substance, and cell activity quantitative analysis method using the same” (AJOU UNIVERSITY INDUSTRY-ACADEMIC COOPERATION FOUNDATION, priority 2020, dated 2025).

What was measured:
RAW 264.7 cells [1] = assay: Observation of cell shape change of RAW 264.7 cells after PMA treatment in the sensor chip; assay type: cell-based, murine; details: 16 μM PMA added to culturing liquid; RAW 264.7 cells adhered after 24 hours culture; FIGS. 4-1 and 4-2
Procedure: (§1) After introducing the sensor chip into an autoclave, the sensor chip was autoclaved at a temperature of 120° C. for […]. Thereafter, RAW 264.7 cells as a murine macrophage cell line were inoculated into a cell culturing compartment containing the culturing liquid of the sterilized sensor chip, and then were cultured for 24 hours to adhere the cells to a surface of the culturing compartment. In this regard, Dulbecco's modified eagle medium (DMEM), 10% fetal bovine serum, and 5% penicillin streptomycin were added to the culturing liquid, and then culturing of the cells was carried out at 37° C., and under a 5% CO2 concentration condition.
(§2) After identifying that the cells were adhered to the surface of the culturing compartment, 16 μM of PMA was added to the culturing liquid to chemically activate the cells, and change in the cell shape was observed (FIGS. 4-1 and 4-2). In this regard, PMA used as the chemical stimulant acts as a strong tumor promoter and is a chemical that induces cell growth, differentiation, and immune response when the PMA is added to the culturing liquid. When the external stimulating substance such as the PMA is added to the culturing liquid, the immune cells recognize the external stimulating substance as an external stimulus such that the activation of the cells is induced.

RAW 264.7 cells [2] = assay: Cyclic voltammetry measurement of hydrogen peroxide secreted into the cell culturing liquid after PMA treatment (HRP carbon paste work electrode); assay type: cell-based, murine; details: 16 μM PMA; CV 0 V to −1 V, reduction current at −400 mV; calibration curve; FIG. 4-6
Procedure: as §1
as §2, with “When the external stimulating substance such as the PMA is added to the culturing liquid, the immune cells recognize the external stimulating substance as an external stimulus such that the activation of the cells is induced.” left out
For this purpose, a calibration curve (FIG. 4-5) was obtained based on the CV results measured while hydrogen peroxide having varying concentrations was added to the cell culturing liquid. […]

## CCCCCCCCCCCCCC(=O)O[C@@H]1[C@@H](C)[C@@]2(O)[C@@H](C=C(CO)C[C@]3(O)C(=O)C(C)=C[C@@H]23)[C@@H]2C(C)(C)[C@]12OC(C)=O [PMA, phorbol 12-myristate 13-acetate]
RAW 264.7 cells [1]
  change in the cell shape after the PMA treatment: cell shape changed into an atypical shape
RAW 264.7 cells [2]
  concentration of hydrogen peroxide secreted from the cells over time after the PMA treatment: concentration of hydrogen peroxide secreted from the cells also increases
